Measurements published in ChEMBL document CHEMBL1128084, “A general method for synthesis of ether phospholipids with -linolenic acid and their properties” (Bioorg Med Chem Lett, 1995).

Assay: Inhibiting aggregation of rabbit platelet induced by platelet-activating factor
Settings: Oryctolagus cuniculus; concentration not given here

inhibition: 4.3%
Compound: CC/C=C/C/C=C/C/C=C/CCCCCCCCC(=O)O[C@@H](COCCCCCCCCCCCCCCCC)COP(=O)([O-])OCC[N+](C)(C)C
